Experimental data published in patent US9693987B2, “Methods for treating cancers using oral formulations of cytidine analogs” (CELGENE CORPORATION, priority 2011, dated 2017).

Experiments:
[1] = tested on: Nasopharyngeal cancer; assay: Clinical study Part 1, oral azacitidine alone or with CBDCA or ABX, tumor response; type: in vivo, human; settings: Part 1 Arm C
Source text: The study was an open-label, 3-arm, multi-center, dose-escalation study of oral azacitidine in combination with either CBDCA (Arm A), ABX (Arm B), or as a single agent (Arm C) in subjects with relapsed or refractory solid tumors (Part 1). Subjects were assigned to each study Arm at the discretion of the investigator. A minimum of 6 subjects were assigned to each study Arm when a dose level (DL) became open for enrollment. If one (1) or zero (0) out of six (6) subjects in a DL experienced dose limiting toxicity (DLT), the dose of oral azacitidine was escalated in the successive DL. A limited number of oral azacitidine DLs were explored to arrive at a recommended Part 2 dose (RP2D) of oral azacitidine for each study Arm. The RP2D may be the MTD, MAD, or a lower dose depending on the tolerability, PK, and PD observed. Part 1 was followed by expansion cohorts at the RP2D in specific tumor types (Part 2). Approximately 60 subjects were enrolled in Part 1, and approximately 100 subjects were enrolled in Part 2. Safety, efficacy, pharmacokinetics, and pharmacodynamics data were evaluated.
Subjects are evaluated for tumor response after Cycle 2 and every other Cycle thereafter. […]
In one embodiment, in Part 1, Arm C of the study, 5-azacytidine was dosed from Day 1 to Day 21, in a 21-day cycle (continuous). Safety and PD were analyzed. […]

[2] = tested on: DNMT1; assay: DNMT1 western blotting, MDA-MB-231 cells in vitro; type: cell-based
Method: (§1) The effects of AZA dose and schedule (short-term vs. extended) on pharmacodynamic markers such as DNMT1 depletion, DNA methylation, and DNA damage were evaluated in MDA-MB-231 breast cancer cells in vitro and in vivo. For in vitro experiments, MDA-MB-231 cells were treated daily with 0.1 or 0.3 μM AZA for up to 12 days, and harvested at various times during treatment, as well as up to 12 days following treatment. For in vivo studies, MDA-MB-231 tumor-bearing mice were dosed (ip) with 1 or 3 mg/kg AZA daily for 3, 7, 14, 21, or 28 days and tumors were harvested during and at several time points after the dosing period. DNA and cell lysates were prepared (from cell pellets or xenograft tumors) for DNA methylation analysis (LINE-1 or EpiTech Methyl qPCR assay) and DNMT1/γH2AX western blotting, respectively.

[3] = tested on: DNMT1; assay: DNMT1 western blotting, MDA-MB-231 xenograft tumors; type: in vivo, mice
Method: as §1

[4] = tested on: DNA methylation (LINE-1 and gene-specific); assay: DNA methylation analysis (LINE-1 or EpiTech Methyl qPCR), MDA-MB-231 cells in vitro; type: cell-based
Method: as §1

[5] = tested on: DNA methylation (LINE-1 and gene-specific); assay: DNA methylation analysis (LINE-1 or EpiTech Methyl qPCR), MDA-MB-231 xenograft tumors; type: in vivo; settings: MDA-MB-231 tumors in mice, 1 or 3 mg/kg AZA ip daily; further reduction with additional days of dosing
Method: as §1

[6] = tested on: γH2AX; assay: γH2AX western blotting (DNA damage), MDA-MB-231 xenograft tumors; type: in vivo; settings: MDA-MB-231 tumor-bearing mice
Method: as §1

[7] = tested on: LINE-1 methylation; assay: DNA methylation (LINE-1) in PBMC DNAs from patients; type: in vivo, human; settings: patients of Example 1, Arm C, 200 mg oral AZA; Days 1, 8 and 15 of 21-day cycle
Method: (§2) In one embodiment, PBMC DNA was used for assessing changes in DNA methylation, using assays such as LINE-1 methylation, %5mdC mass spec, Infinium® Methylation27 Array, and Infinium® Methylation450 Array. In one study, DNA methylation (LINE-1) in PBMC DNAs from patients in clinical studies described in Example 1, dosed with 200 mg oral AZA alone or in combination with CDBCA or ABX, was measured on Days 1, 8, and 15 of 21-day cycle. […] In one study, %5mdC in PBMC DNAs from patients in clinical studies described in Example 1, dosed with 200 mg oral AZA alone or in combination with CDBCA or ABX, was measured on Days 1, 8, and 15 of 21-day cycle. In one study, methylation levels were measured on Days 1, 8, and 15 of 21-day cycle using Infinium® Methylation27 Array (patients dosed with 200 mg oral AZA alone or in combination with CDBCA or ABX) and density profiles of average methylation levels were analyzed. […] In another study, methylation levels were measured using Infinium® Methylation450 Array (patients dosed with 300 mg oral AZA alone or in combination with CDBCA or ABX) and density profiles of average methylation levels were analyzed, as well as % change of hypermethylated loci (beta>0.7) upon treatment.

[8] = tested on: DNA methylation, hypermethylated loci (beta>0.7); assay: Infinium Methylation27 Array, PBMC DNA of patients; type: in vivo, human; settings: patients dosed with 200 mg oral AZA alone (Arm C) or with CBDCA (Arm A) or ABX (Arm B); Days 1, 8, 15 of 21-day cycle
Method: DNA methylation is employed as a biomarker to monitor responses in patients treated with azacitidine in the clinical studies described herein. Analysis is performed with an Infinium Assay (commercially available from Illumina, Inc., San Diego, Calif.). The Infinium Assay combined with BeadChips allows large-scale interrogation of variations in the human genome. For example, the Infinium HumanMethylation27 BeadChip enables interrogation of 27,578 CpG loci, covering over 14,000 genes. […]
The assay for methylation is used to detect methylation status at individual CpG loci by typing bisulfite-converted DNA. […] Blood samples were collected and DNA methylation was analyzed in parallel. In other embodiments, bone marrow samples are collected and DNA methylation analyzed in parallel.
In one embodiment, PBMC DNA was used for assessing changes in DNA methylation, using assays such as LINE-1 methylation, %5mdC mass spec, Infinium® Methylation27 Array, and Infinium® Methylation450 Array. In one study, DNA methylation (LINE-1) in PBMC DNAs from patients in clinical studies described in Example 1, dosed with 200 mg oral AZA alone or in combination with CDBCA or ABX, was measured on Days 1, 8, and 15 of 21-day cycle. […]

[9] = tested on: DNA methylation in PBMCs; assay: DNA hypomethylation in PBMCs of patients (summary); type: in vivo, human
Method: as §2

[10] = PK exposure of AZA in patients; type: in vivo; settings: human, plasma; oral AZA, patients of the clinical study; read-out: AUCinf of patients in whom decreases in DNA methylation were observed
Method: For oral azacitidine, CBDCA, and ABX (administered alone and in combination), the following plasma PK parameters are assessed: (1) maximum observed concentration in plasma (Cmax); (2) area under the concentration-time curve (AUC); (3) time to maximum concentration (tmax); (4) terminal half-life (t1/2); (5) apparent total body clearance (CL/F); and (6) apparent volume of distribution (Vz/F). To evaluate the PD effects of oral azacitidine in blood, plasma, and tumor tissue, the following endpoints are collected: (1) change from baseline (Cycle 1 Day 1 pre-dose) in DNA methylation (global and gene-specific assays) in whole blood and tumor tissue (as available in Part 1); (2) reduction from baseline (Cycle 1 Day 1 predose) in DNMT1 protein levels in tumor tissue (as available in Part 1).

[11] = tested on: higher-risk MDS; settings: Phase III study, administered subcutaneously, subjects with higher-risk MDS; cited from earlier work
[12] = tested on: Ninety-two cancer cell lines; assay: In vitro modeling of clinical dosing schema, AZA with CBDCA or ABX, cancer cell line panel; type: cell-based; settings: other experiments; some cell lines
Method: DNA hypomethylation (e.g., LINE-1, p16) was measured 72 hours after AZA treatment alone or in combination with CBDCA or ABX. p16 (mRNA) re-expression was determined 72 hours after AZA treatment alone or in combination with CBDCA or ABX. Ninety-two cancer cell lines were tested in order to identify specific tumor types that become sensitized to CBDCA or ABX after treatment with AZA (bladder cancer n=8; head and neck cancer n=8, breast cancer n=21; lung cancer n=35; pancreatic cancer n=7; ovarian cancer n=7; and melanoma n=6).

SMILES	Time on Study ([1]; AZA dose 300 mg single agent, nasopharyngeal patient)	Tumor response ([1]; 5-azacytidine 300 mg Day 1 to Day 21, 21-day cycle, nasopharyngeal cancer)	Time for DNMT1 protein levels to return to basal levels after AZA treatment was halted ([2]; MDA-MB-231 cells in vitro)	DNMT1 protein level ([2]; MDA-MB-231 cells treated daily with 0.1 or 0.3 μM AZA for up to 12 days)	Time to DNMT1 protein depletion post in vivo dose ([3]; MDA-MB-231 tumor-bearing mice, 1 or 3 mg/kg AZA ip)	DNMT1 protein level ([3]; MDA-MB-231 tumor-bearing mice, 1 or 3 mg/kg AZA ip daily)	Time for DNMT1 protein levels to return to basal levels after AZA treatment was halted ([3]; MDA-MB-231 tumors in mice)	Time for DNA methylation to return to basal levels upon AZA removal ([4]; MDA-MB-231 cells in vitro)	DNA methylation (LINE-1 and gene-specific) ([4]; MDA-MB-231 cells, 0.1 or 0.3 μM AZA daily, further reduction with additional days of dosing)	DNA methylation (LINE-1 and gene-specific) [5]	Days of dosing until DNA damage was observed in tumors ([6]; 1 mg/kg AZA ip daily)	Days of dosing until DNA damage was observed in tumors ([6]; 3 mg/kg AZA ip daily)	DNA methylation (LINE-1) in PBMC DNAs [7]	DNA methylation in PBMCs upon treatment (hypermethylated loci, beta>0.7) [8]	Patients with DNA hypomethylation in PBMCs / patients analyzed ([9]; 200 mg oral AZA alone (Arm C) or with ABX (Arm B) or CBDCA (Arm A))	Patients with DNA hypomethylation in PBMCs / patients analyzed ([9]; 300 mg oral AZA alone (Arm C) or with CBDCA (Arm A))	AUC(0-inf) [10]	Survival and time to AML transformation or death [11]	Interaction of DAC (decitabine) priming with ABX [12]	Interaction of DAC (decitabine) priming with CBDCA [12]
Nc1ncn([C@@H]2O[C@H](CO)[C@@H](O)[C@H]2O)c(=O)n1 [AZA, 4-amino-1-β-D-ribofuranosyl-1,3,5-triazin-2(1H)-one]	>3 mo	Partial responses	3 to 4 days	dose-dependent depletion	≤ 8 h	dose-dependent depletion	3 to 4 days	≤ 8 days	dose-dependent decrease	dose-dependent decrease	21 days	14 days	Decreases in LINE-1 methylation were observed for two patients	decreases in hypermethylated loci	5/6	3/3	> 350 ng·h/mL	significantly prolonged survival	–	–
Nc1ncn([C@H]2C[C@H](O)[C@@H](CO)O2)c(=O)n1 [DAC, 5-aza-2′-deoxycytidine]	–	–	–	–	–	–	–	–	–	–	–	–	–	–	–	–	–	–	antagonism	additivity or synergy
